In test [1] the target is T1, SIRT1 (Homo sapiens, UniProt Q96EB6).
T1 sequence (Q96EB6 1-747): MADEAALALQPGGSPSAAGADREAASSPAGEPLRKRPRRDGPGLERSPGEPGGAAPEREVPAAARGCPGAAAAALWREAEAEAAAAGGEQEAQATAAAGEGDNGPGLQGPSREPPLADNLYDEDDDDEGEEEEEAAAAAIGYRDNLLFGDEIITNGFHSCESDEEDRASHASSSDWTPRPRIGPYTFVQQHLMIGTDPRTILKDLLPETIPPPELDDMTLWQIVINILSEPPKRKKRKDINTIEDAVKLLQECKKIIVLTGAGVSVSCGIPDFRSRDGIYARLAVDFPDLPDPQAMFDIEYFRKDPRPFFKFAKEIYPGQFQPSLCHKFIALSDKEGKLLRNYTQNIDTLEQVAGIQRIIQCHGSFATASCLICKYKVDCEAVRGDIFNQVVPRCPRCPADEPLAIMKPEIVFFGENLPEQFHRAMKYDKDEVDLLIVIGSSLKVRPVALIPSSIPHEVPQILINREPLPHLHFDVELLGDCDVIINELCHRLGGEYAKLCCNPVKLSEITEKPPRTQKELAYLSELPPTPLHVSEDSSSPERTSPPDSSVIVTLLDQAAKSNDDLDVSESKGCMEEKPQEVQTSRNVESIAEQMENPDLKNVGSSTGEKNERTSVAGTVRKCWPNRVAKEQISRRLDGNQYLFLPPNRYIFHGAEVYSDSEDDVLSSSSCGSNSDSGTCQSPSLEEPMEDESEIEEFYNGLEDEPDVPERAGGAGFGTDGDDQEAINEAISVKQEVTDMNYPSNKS
Kind of test: SIRT1 Fluorescent Activity Assay/Drug Discovery Kit AK-555. Particulars: capsules stored under ambient conditions. In kind it is biochemical.

Test [2] concerns miR-20b. As to the kind of experiment: miR-20b quantification in I/R heart, Taqman real-time PCR. Format: in vivo, rat. Particulars: I/R alone: down regulation […]; FIG. 17C.
Excerpt: Animals. […] Male Sprague-Dawley rats weighing between 250 and 300 g were fed ad libitum regular rat chow with free access to water until the start of the experimental procedure.
Test [3] concerns reactive oxygen species. As to the kind of experiment: Intracellular ROS by CM-H2DCFDA fluorescence in I/R heart. In kind it is in vivo, rat. Conditions: IR heart, FIG. 19.
Description: The dye was injected intravenously, prior to induction of ischemia/reperfusion, and at the end of the experiments, the level of fluorescence was determined for the generation of ROS by measuring the fluorescent oxidation product CM-DCF in the cytosol, at an excitation wavelength of 480 nm and an emission wavelength of 520 nm.
Test [4] concerns injected tumors. Conditions: mice with injected tumors; cited from earlier work.
Test [5] concerns rhabdomyosarcoma cells. Particulars: low dosage; cited from earlier work.
Test [6] has as its system breast cancer cells. Conditions: cited from earlier work.
Test [7] concerns cancer risk. Conditions: 1100 IU, 4-year period, women in Nebraska; cited from earlier work.

The structures appear in SMILES notation.

For the molecule `O=c1c(O)c(-c2ccc(O)c(O)c2)oc2cc(O)cc(O)c12` [quercetin], the “biological activity of encapsulated quercetin (ability to stimulate SIRT1 activity)” value in test [1] is on record as “maintained biological activity”.
For the molecule `CC(C)=CCC/C(C)=C/CC/C(C)=C/CC[C@]1(C)CCc2cc(O)c(C)c(C)c2O1` [γ-tocotrienol], the “miR-20b expression in pretreated I/R hearts” value in test [2] is 9.4 fold. Besides, in test [3], the “intracellular ROS concentration compared to control” value is “lowered”.
For `O=P(O)(O)O[C@H]1[C@H](OP(=O)(O)O)[C@@H](OP(=O)(O)O)[C@H](OP(=O)(O)O)[C@@H](OP(=O)(O)O)[C@H]1OP(=O)(O)O` [IP6, (2,3,4,5,6-pentaphosphonooxycyclohexyl)dihydrogen phosphate], the “tumor size, times smaller than non-treated mice” value in test [4] is 50 times. In addition, the “suppression of growth of rhabdomyosarcoma cells” value in test [5] is listed as 50%.
For the molecule `C=C1CC[C@H](O)C/C1=C/C=C1\CCC[C@]2(C)[C@@H]([C@H](C)CCCC(C)C)CC[C@@H]12` [vitamin D3, cholecalciferol], in test [6] (higher concentrations of vitamin D3), the “decline of number of breast cancer cells” value is reported as “about 25%”. Moreover, the “decline of breast tumor cell numbers” value in test [6] (low-dose vitamin D3) was “does not reduce”. Besides, the “reduction in cancer risk” value in test [7] is given as 60-77%.

(Values after patent publication US20140011889A1, “Resveratrol-Containing Compositions and Methods of Use for Cardiac-Related Diseases” (Resveratrol Partners, LLC, priority 2010, published 2014).)
